In PMC5458179, “Oxidative DNA double strand breaks and autophagy in the antitumor effect of sterically hindered platinum(II) complexes in NSCLCs” (Oncotarget, 2017):

Assays:
[1] = system: Bax and Bcl-2; experiment: Western blot of Bax and Bcl-2; assay type: cell-based, human; conditions: A549, 10 μM, 24 h, whole cell lysates
Experimental: (§1) The role of complex 3-induced autophagy in cell death was further analyzed (Figure 6). When A549 cancer cells were treated with complex 3 of 10 μM, the protein expression of LC3-II was increased (Figure 6A). […] Treatment with complex 3 for 24 h caused a 4.5-folds increase in cells undergoing autophagy (Figure 6C). […] Moreover, Bax and Bcl-2 expressions were measured by western blot analysis of whole cell lysates.
(§2) Lysates were centrifuged at 12,000 g for 0.5 h at 4°C. The concentrations of total proteins were measured using the BCA assay method with Varioskan spectrofluorometer and spectrophotometer (Thermo, Waltham, MA) at 562 nm. Protein (20–100 μg) prepared from the indicated cells was loaded per lane and electrophoresed in 8% or 10% sodium dodecyl sulfate polyacrylamide gel electrophoresis (SDS-PAGE), and then transferred onto polyvinylidene difluoride (PVDF) Immobilon-P membrane (Bio-Rad, USA) using a transblot apparatus (Bio-Rad, USA). The membranes were blocked with 5% (w/v) non-fat milk at 0.5 h at 37°C, followed by overnight incubation at 4°C with primary antibodies diluted in PBST. After washing with PBST, the membranes were incubated for 1 h with an IRDye´800 conjugated secondary antibody diluted 1:20000 in PBST, and the labeled proteins were detected with an Odyssey Scanning System (Li-COR., Lincoln, Nebraska, USA).

[2] = system: MDC1/Aprataxin; experiment: Immunostaining of DSB repair proteins; assay type: cell-based, human; conditions: A549, 10 μM, 24 h
Source text: The serine 139-phosphorylated form of chromatin-associated histone H2AX, namely γ-H2AX, is a key marker of cellular response to DDR, particularly DSBs. […] Obviously, pre-treatment of NAC could considerably alleviate the DDR triggered by complex 3 (Figure 5B). Therefore, we came to a conclusion that complex 3 caused DDR especially DSBs in A549 cells, which might happen after the increased level of intracellular ROS. In order to reveal the mechanisms underlying the enhanced DNA damage, complex 3 was studied to learn whether it could reduce the activation of DNA repair response including the co-localization of DSB repair protein MDC1/Aprataxin within nucleus. […] In order to reveal the mechanisms underlying DNA damage, complex 3 was studied to detect whether it could suppress the activation of DNA single strand break repair via the phosphorylation of SSB repair mediator/adaptor proteins XRCC1 within nucleus.
For assessment of DSBs repair kinetics we detected the total nuclear volume for an average of 50–60 nuclei per time points and cell type. Briefly, A549 cells were grown to confluence in 35 mm petri-dishes with 0.17 mm glass bottom. […] Non-specific binding was blocked by incubation with 5% FCS/PBS/0.1% Triton X-100 for 1 h at RT. […] Numbers of γH2AX foci were counted in 50–60 nuclei and plotted over time as previously described.

[3] = system: caspase-3; experiment: Caspase-3 activation analysis; assay type: cell-based, human; conditions: A549 and NCI-H1299, 10 μM, 24 h
Experimental: For the quantification of activation of caspase-3 in cancer cells, 5 × 10^5 cancer cells were seeded in a 60 mm dish and allowed to adhere for 1 day. […] As a reference control, the cells were only incubated with fresh media at 37°C. Then, the cells were washed with PBS to eliminate the remaining drugs and harvested using trypsin-EDTA. All the groups of cells were collected into microtubes following incubation with […] media containing […] of FITC-DEVD-FMK (Caspase 3(active) FITC Staining Kit (ab65613)) for 1 h at 37°C under 5% CO2. Subsequently, centrifugation of the cells was performed to collect cell pellets and washed 2 times with washing buffer. Each group of cells was resuspended with […] of the washing buffer and transferred […] per well in a microtiter plate reader. The quantification of caspase-3 was evaluated as Relative Fluorescence Unit(RFU) using Fluorophotometer (Max Gemini EM, SoftMax® Pro 5, Molecular Devices Corp., Sunnyvale, CA) at an emission wavelength of 535 nm after excitation at 485 nm. The statistical significance was evaluated with one-way ANOVA test using Graph Pad Prism 4 software.

[4] = system: p-mTOR; experiment: Western blot of PI3K/Akt/mTOR pathway; assay type: cell-based, human; conditions: A549, 10 μM, 24 h, relative to control
Source text: (§3) The mammalian target of rapamycin (mTOR) kinase is used to regulate autophagy as controlled though oxidative stress, hypoxia and growth receptors. The phosphatidylinosital-3 kinase (PI3K)/Akt signaling pathway activates mTOR through phosphorylating and inactivating the tuberous sclerosis complex (TSC)1–TSC2 complex. Inhibition of mTOR results in activation of autophagy. […] At the same time, levels of the p-Akt protein decreased to 0.95-, 1.02-, and 0.39-folds, respectively (Figure 7B). […] As a results, the administration of complex 3 decreased levels of proteins in PI3K/Akt/mTOR signaling pathways.
as §2

[5] = system: p-Akt; experiment: Western blot of PI3K/Akt/mTOR pathway; assay type: cell-based, human; conditions: A549, 10 μM, 24 h, relative to control
Source text: as §3, §2

[6] = system: cancer cells; experiment: Analysis of SSB (alkaline elution assay); assay type: cell-based; conditions: 10 μM, 15, 30 and 60 min
Experimental: Thus, we further identified whether the increased ROS level serves as a cause of DDR. […] To investigate the extent of DNA damage induced by complex 3, we detected the numbers of normal SSB using an alkaline elution assay.
Then the cells were washed three times with PBSCMF (140 mM NaCl, 3 mM KCl, 8 mM Na2HPO4 and 1 mM KH2PO4). The numbers of SSBs were determined by an alkaline elution assay as previously described. The numbers of SSB in untreated cancer cells were subtracted in all cases.

[7] = system: LC3-II; experiment: Western blot of LC3-II; assay type: cell-based, human
Experimental: as §1
To investigate the role of ROS in complex 3-induced cell death, the level of intracellular H2O2 was measured. […] Exposure of A549 cells to NAC reduced levels of LC3-II from 2.3- to 1.5-folds (Figure 8B). […] In parallel, the complex 3-induced increase ratio of Bax/Bcl-2 was suppressed by NAC (Figure 8E).
as §2

| Compound | Bax and Bcl-2 protein levels [1] | co-localization of MDC1/Aprataxin to the damaged DNA [2] | caspase-3 activity [3] | amounts of p-mTOR [4] | levels of the p-Akt protein [5] | numbers of SSBs [6] | levels of LC3-II ([7]; A549, 10 μM complex 18 h, without NAC) | level of LC3-II ([7]; A549, 10 μM, 24 h) | levels of LC3-II ([7]; A549, 5 mM NAC 2 h pretreatment then 10 μM complex 18 h) |
| --- | --- | --- | --- | --- | --- | --- | --- | --- | --- |
| CC(C)C[NH+]1[C@@H]2CCCC[C@H]2[NH+](CC(C)C)[Pt-2]12[O]C(=O)CC(=O)[O]2 (some centres unmarked) [Complex 3] | Incremental changes in pro-apoptotic Bax and decreased changes anti-apoptotic Bcl-2 protein levels | dramatically decrease in the co-localization of MDC1/Aprataxin | high degree of caspase-3 activity compared to oxaliplatin | 1.41 folds | 1.02 folds | could effectively increase the numbers of SSBs | 2.3 folds | 2.5 folds | 1.5 folds |
| O=C1[O][Pt]2([NH][C@@H]3CCCC[C@H]3[NH]2)[O]C1=O [Oxaliplatin, oxaliplatin, reference compound] | – | – | – | 1.15 folds | 0.95 folds | – | – | – | – |
